Measured values: BindingDB's records for doi:10.1016/s0028-3908(05)80009-7 (Universit&Eacute, 1994)
Where a SMILES comes first, the peptide text is derived from it. [ ]: non-standard residue; d: D form. ξ: configuration not given here. Ile(3ξ) = CCC(C)[C@H](N)C(=O)O

Target: T1, Pituitary adenylate cyclase-activating polypeptide (Rattus norvegicus, UniProt P13589)
T1 sequence (P13589 whole entry): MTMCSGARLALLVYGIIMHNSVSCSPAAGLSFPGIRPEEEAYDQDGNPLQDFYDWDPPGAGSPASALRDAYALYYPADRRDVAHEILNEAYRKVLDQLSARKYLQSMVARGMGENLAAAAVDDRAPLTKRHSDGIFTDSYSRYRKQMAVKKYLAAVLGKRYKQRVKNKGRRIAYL

Compound | Ki [nM]
CC[C@H](C)[C@H](NC(=O)CNC(=O)[C@H](CC(=O)O)NC(=O)[C@H](C)NC(=O)[C@@H](N)Cc1cnc[nH]1)C(=O)N[C@@H](Cc1ccccc1)C(=O)N[C@H](C(=O)N[C@@H](CC(=O)O)C(=O)N[C@@H](CO)C(=O)N[C@@H](Cc1ccc(O)cc1)C(=O)N[C@@H](CO)C(=O)N[C@@H](CCCNC(=N)N)C(=O)N[C@@H](Cc1ccc(O)cc1)C(=O)N[C@@H](CCCNC(=N)N)C(=O)N[C@@H](CCCCN)C(=O)N[C@@H](CCC(N)=O)C(=O)N[C@@H](CCSC)C(=O)N[C@@H](C)C(=O)N[C@H](C(=O)N[C@@H](CCCCN)C(=O)N[C@@H](CCCCN)C(=O)N[C@@H](Cc1ccc(O)cc1)C(=O)N[C@@H](CC(C)C)C(=O)N[C@@H](C)C(=O)N[C@@H](C)C(=O)N[C@H](C(=O)N[C@@H](CC(C)C)C(=O)NCC(=O)N[C@@H](CCCCN)C(=O)N[C@@H](CCCNC(=N)N)C(=O)N[C@@H](Cc1ccc(O)cc1)C(=O)N[C@@H](CCCCN)C(=O)N[C@@H](CCC(N)=O)C(=O)N[C@@H](CCCNC(=N)N)C(=O)N[C@H](C(=O)N[C@@H](CCCCN)C(=O)N[C@@H](CC(N)=O)C(=O)N[C@@H](CCCCN)C(N)=O)C(C)C)C(C)C)C(C)C)[C@@H](C)O | 0.5
CSCC[C@H](NC(=O)[C@H](CCC(N)=O)NC(=O)[C@H](CCCCN)NC(=O)[C@H](CCCNC(=N)N)NC(=O)[C@H](Cc1ccc(O)cc1)NC(=O)[C@H](CCCNC(=N)N)NC(=O)[C@H](CO)NC(=O)[C@H](Cc1ccc(O)cc1)NC(=O)[C@H](CO)NC(=O)[C@H](CC(=O)O)NC(=O)[C@@H](NC(=O)[C@@H](N)Cc1ccccc1)[C@@H](C)O)C(=O)N[C@@H](C)C(=O)N[C@H](C(=O)N[C@@H](CCCCN)C(=O)N[C@@H](CCCCN)C(=O)N[C@@H](Cc1ccc(O)cc1)C(=O)N[C@@H](CC(C)C)C(=O)N[C@@H](C)C(=O)N[C@@H](C)C(=O)N[C@H](C(=O)N[C@@H](CC(C)C)C(=O)NCC(=O)N[C@@H](CCCCN)C(=O)N[C@@H](CCCNC(=N)N)C(=O)N[C@@H](Cc1ccc(O)cc1)C(=O)N[C@@H](CCCCN)C(=O)N[C@@H](CCC(N)=O)C(=O)N[C@@H](CCCNC(=N)N)C(=O)N[C@H](C(=O)N[C@@H](CCCCN)C(=O)N[C@@H](CC(N)=O)C(=O)N[C@@H](CCCCN)C(N)=O)C(C)C)C(C)C)C(C)C | 2
[C][C][C]([C])[C@H]([N]C(=O)[C][N]C(=O)[C@H]([C][C]C([O])=O)[N]C(=O)[C@@H]([N])[C][O])C(=O)[N][C@@H]([C]c1ccccc1)C(=O)[N][C@H](C(=O)[N][C@@H]([C]C([O])=O)C(=O)[N][C@@H]([C][O])C(=O)[N][C@@H]([C]c1ccc([O])cc1)C(=O)[N][C@@H]([C][O])C(=O)[N][C@@H]([C][C][C]N=C([N])[N])C(=O)[N][C@@H]([C]c1ccc([O])cc1)C(=O)[N][C@@H]([C][C][C]N=C([N])[N])C(=O)[N][C@@H]([C][C][C][C][N])C(=O)[N][C@@H]([C][C]C([N])=O)C(=O)[N][C@@H]([C][C]S[C])C(=O)[N][C@@H]([C])C(=O)[N][C@@H]([C]([C])[C])C(=O)[N][C@@H]([C][C][C][C][N])C(=O)[N][C@@H]([C][C][C][C][N])C(=O)[N][C@@H]([C]c1ccc([O])cc1)C(=O)[N][C@@H]([C][C]([C])[C])C(=O)[N][C@@H]([C])C(=O)[N][C@@H]([C])C(=O)[N][C@@H]([C]([C])[C])C(=O)[N][C@@H]([C][C]([C])[C])C([N])=O)[C@@H]([C])[O] [PACAP(2-27)] | 30
CCC(C)[C@H](NC(=O)CNC(=O)[C@H](CC(=O)O)NC(=O)[C@@H](N)CO)C(=O)N[C@@H](Cc1ccccc1)C(=O)N[C@H](C(=O)N[C@@H](CC(=O)O)C(=O)N[C@@H](CO)C(=O)N[C@@H](Cc1ccc(O)cc1)C(=O)N[C@@H](CO)C(=O)N[C@@H](CCCN=C(N)N)C(=O)N[C@@H](Cc1ccc(O)cc1)C(=O)N[C@@H](CCCN=C(N)N)C(=O)N[C@@H](CCCCN)C(=O)N[C@@H](CCC(N)=O)C(=O)N[C@@H](CCSC)C(=O)N[C@@H](C)C(=O)N[C@H](C(=O)N[C@@H](CCCCN)C(=O)N[C@@H](CCCCN)C(=O)N[C@@H](Cc1ccc(O)cc1)C(=O)N[C@@H](CC(C)C)C(=O)N[C@@H](C)C(=O)N[C@@H](C)C(=O)N[C@H](C(=O)N[C@@H](CC(C)C)C(=O)NCC(=O)N[C@@H](CCCCN)C(=O)N[C@@H](CCCN=C(N)N)C(=O)N[C@@H](Cc1ccc(O)cc1)C(=O)N[C@@H](CCCCN)C(=O)N[C@@H](CCC(N)=O)C(=O)N[C@@H](CCCN=C(N)N)C(=O)N[C@H](C(=O)N[C@@H](CCCCN)C(=O)N[C@@H](CC(N)=O)C(=O)N[C@@H](CCCCN)C(N)=O)C(C)C)C(C)C)C(C)C)[C@@H](C)O (some centres undefined) [PACAP(2-38)] (H-SDG[Ile(3ξ)]FTDSYSRYRKQMAVKKYLAAVLGKRYKQRVKNK-NH2) | 3

Now from value to compound:

Ki [nM] | Compound
3000 | CCC(C)[C@H](NC(=O)CNC(=O)[C@@H](N)CC(=O)O)C(=O)N[C@@H](Cc1ccccc1)C(=O)N[C@H](C(=O)N[C@@H](CC(=O)O)C(=O)N[C@@H](CO)C(=O)N[C@@H](Cc1ccc(O)cc1)C(=O)N[C@@H](CO)C(=O)N[C@@H](CCCN=C(N)N)C(=O)N[C@@H](Cc1ccc(O)cc1)C(=O)N[C@@H](CCCN=C(N)N)C(=O)N[C@@H](CCCCN)C(=O)N[C@@H](CCC(N)=O)C(=O)N[C@@H](CCSC)C(=O)N[C@@H](C)C(=O)N[C@H](C(=O)N[C@@H](CCCCN)C(=O)N[C@@H](CCCCN)C(=O)N[C@@H](Cc1ccc(O)cc1)C(=O)N[C@@H](CC(C)C)C(=O)N[C@@H](C)C(=O)N[C@@H](C)C(=O)N[C@H](C(=O)N[C@@H](CC(C)C)C(N)=O)C(C)C)C(C)C)[C@@H](C)O (some centres undefined) [PACAP(3-27)] (H-DG[Ile(3ξ)]FTDSYSRYRKQMAVKKYLAAVL-NH2)
10 | CCC(C)[C@H](NC(=O)CNC(=O)[C@@H](N)CC(=O)O)C(=O)N[C@@H](Cc1ccccc1)C(=O)N[C@H](C(=O)N[C@@H](CC(=O)O)C(=O)N[C@@H](CO)C(=O)N[C@@H](Cc1ccc(O)cc1)C(=O)N[C@@H](CO)C(=O)N[C@@H](CCCN=C(N)N)C(=O)N[C@@H](Cc1ccc(O)cc1)C(=O)N[C@@H](CCCN=C(N)N)C(=O)N[C@@H](CCCCN)C(=O)N[C@@H](CCC(N)=O)C(=O)N[C@@H](CCSC)C(=O)N[C@@H](C)C(=O)N[C@H](C(=O)N[C@@H](CCCCN)C(=O)N[C@@H](CCCCN)C(=O)N[C@@H](Cc1ccc(O)cc1)C(=O)N[C@@H](CC(C)C)C(=O)N[C@@H](C)C(=O)N[C@@H](C)C(=O)N[C@H](C(=O)N[C@@H](CC(C)C)C(=O)NCC(=O)N[C@@H](CCCCN)C(=O)N[C@@H](CCCN=C(N)N)C(=O)N[C@@H](Cc1ccc(O)cc1)C(=O)N[C@@H](CCCCN)C(=O)N[C@@H](CCC(N)=O)C(=O)N[C@@H](CCCN=C(N)N)C(=O)N[C@H](C(=O)N[C@@H](CCCCN)C(=O)N[C@@H](CC(N)=O)C(=O)N[C@@H](CCCCN)C(N)=O)C(C)C)C(C)C)C(C)C)[C@@H](C)O (some centres undefined) [PACAP(3-38)] (H-DG[Ile(3ξ)]FTDSYSRYRKQMAVKKYLAAVLGKRYKQRVKNK-NH2)
20 | CCC(C)[C@H](NC(=O)CN)C(=O)N[C@@H](Cc1ccccc1)C(=O)N[C@H](C(=O)N[C@@H](CC(=O)O)C(=O)N[C@@H](CO)C(=O)N[C@@H](Cc1ccc(O)cc1)C(=O)N[C@@H](CO)C(=O)N[C@@H](CCCN=C(N)N)C(=O)N[C@@H](Cc1ccc(O)cc1)C(=O)N[C@@H](CCCN=C(N)N)C(=O)N[C@@H](CCCCN)C(=O)N[C@@H](CCC(N)=O)C(=O)N[C@@H](CCSC)C(=O)N[C@@H](C)C(=O)N[C@H](C(=O)N[C@@H](CCCCN)C(=O)N[C@@H](CCCCN)C(=O)N[C@@H](Cc1ccc(O)cc1)C(=O)N[C@@H](CC(C)C)C(=O)N[C@@H](C)C(=O)N[C@@H](C)C(=O)N[C@H](C(=O)N[C@@H](CC(C)C)C(=O)NCC(=O)N[C@@H](CCCCN)C(=O)N[C@@H](CCCN=C(N)N)C(=O)N[C@@H](Cc1ccc(O)cc1)C(=O)N[C@@H](CCCCN)C(=O)N[C@@H](CCC(N)=O)C(=O)N[C@@H](CCCN=C(N)N)C(=O)N[C@H](C(=O)N[C@@H](CCCCN)C(=O)N[C@@H](CC(N)=O)C(=O)N[C@@H](CCCCN)C(N)=O)C(C)C)C(C)C)C(C)C)[C@@H](C)O (some centres undefined) [PACAP(4-38)] (H-G[Ile(3ξ)]FTDSYSRYRKQMAVKKYLAAVLGKRYKQRVKNK-NH2)
1000 | CCC(C)[C@H](N)C(=O)N[C@@H](Cc1ccccc1)C(=O)N[C@H](C(=O)N[C@@H](CC(=O)O)C(=O)N[C@@H](CO)C(=O)N[C@@H](Cc1ccc(O)cc1)C(=O)N[C@@H](CO)C(=O)N[C@@H](CCCN=C(N)N)C(=O)N[C@@H](Cc1ccc(O)cc1)C(=O)N[C@@H](CCCN=C(N)N)C(=O)N[C@@H](CCCCN)C(=O)N[C@@H](CCC(N)=O)C(=O)N[C@@H](CCSC)C(=O)N[C@@H](C)C(=O)N[C@H](C(=O)N[C@@H](CCCCN)C(=O)N[C@@H](CCCCN)C(=O)N[C@@H](Cc1ccc(O)cc1)C(=O)N[C@@H](CC(C)C)C(=O)N[C@@H](C)C(=O)N[C@@H](C)C(=O)N[C@H](C(=O)N[C@@H](CC(C)C)C(N)=O)C(C)C)C(C)C)[C@@H](C)O (some centres undefined) [PACAP(5-27)] (H-[Ile(3ξ)]FTDSYSRYRKQMAVKKYLAAVL-NH2)
9 | CCC(C)[C@H](N)C(=O)N[C@@H](Cc1ccccc1)C(=O)N[C@H](C(=O)N[C@@H](CC(=O)O)C(=O)N[C@@H](CO)C(=O)N[C@@H](Cc1ccc(O)cc1)C(=O)N[C@@H](CO)C(=O)N[C@@H](CCCN=C(N)N)C(=O)N[C@@H](Cc1ccc(O)cc1)C(=O)N[C@@H](CCCN=C(N)N)C(=O)N[C@@H](CCCCN)C(=O)N[C@@H](CCC(N)=O)C(=O)N[C@@H](CCSC)C(=O)N[C@@H](C)C(=O)N[C@H](C(=O)N[C@@H](CCCCN)C(=O)N[C@@H](CCCCN)C(=O)N[C@@H](Cc1ccc(O)cc1)C(=O)N[C@@H](CC(C)C)C(=O)N[C@@H](C)C(=O)N[C@@H](C)C(=O)N[C@H](C(=O)N[C@@H](CC(C)C)C(=O)NCC(=O)N[C@@H](CCCCN)C(=O)N[C@@H](CCCN=C(N)N)C(=O)N[C@@H](Cc1ccc(O)cc1)C(=O)N[C@@H](CCCCN)C(=O)N[C@@H](CCC(N)=O)C(=O)N[C@@H](CCCN=C(N)N)C(=O)N[C@H](C(=O)N[C@@H](CCCCN)C(=O)N[C@@H](CC(N)=O)C(=O)N[C@@H](CCCCN)C(N)=O)C(C)C)C(C)C)C(C)C)[C@@H](C)O (some centres undefined) [PACAP(5-38)] (H-[Ile(3ξ)]FTDSYSRYRKQMAVKKYLAAVLGKRYKQRVKNK-NH2)
